According to patent publication US20250270173A1, “PYRIDINE DERIVATIVES FOR TREATING PSYCHIATRIC DISORDERS” (GILGAMESH PHARMACEUTICALS, INC., priority 2022, published 2025):

How the values were obtained:
[1] = target: 5-HT2B receptor (Homo sapiens (Human), UniProt P41595); test: FLIPR Ca2+ flux functional assay at 5-HT2B (HEK293); settings: for 5-HT2B % Act @ Max Conc.: Ca2+ flux, HEK293, at max concentration
[2] = target: 5-HT2A receptor (Homo sapiens (Human), UniProt P28223); test: FLIPR Ca2+ flux functional assay at 5-HT2A (HEK293); settings: for 5-HT2A % Act @ Max Conc.: Ca2+ flux, HEK293, at max concentration
[3] = target: 5-HT1A receptor (Homo sapiens (Human), UniProt P08908); test: FLIPR Ca2+ flux functional assay at 5-HT1A (CHO cells); settings: for 5-HT1A % Act @ Max Conc.: Ca2+ flux, CHO cells, at max concentration
[4] = system: C57BL/6 mice; test: Automated (video tracking) head twitch response (HTR) assay in mice; type: in vivo; settings: SC; for ED50: Mus musculus, 20 min, 20 min recording, read-out: ED50; for Most Efficacious Dose; mg/kg: dose giving the most HTR
Method: Disclosed compounds were tested for their ability to induce a head twitch response (HTR) in mice using an automated video tracking procedure, with the results summarized in Table 5. […] The phenyl Compound 44 was substantially more efficacious at inducing HTR than its pyridine counterpart Compound 29, in agreement with the generally lower maximal efficacy of the disclosed pyridine compounds for signaling through 5-HT2A receptors.
Animals. Adult male C57BL/6 mice aged 8-10 weeks (body weight 20-25 g) were used in these experiments. Animals were housed under controlled temperatures and 12-hour light/dark cycles (lights on between 07:00-19:00 h), with ad libitum food and water. The protocol was approved by the Institutional Animal Care and Use Committee at the study site. This study was carried out in strict accordance with the recommendations in the Guide for the Care and Use of Laboratory Animals of the National Institutes of Health. All efforts were made to minimize suffering.
Drugs and Drug Administration. […] was commercially obtained. Disclosed compounds were synthesized as described above. They were administered subcutaneously (SC) dissolved in saline (or saline acidified with 1-2 molar equivalents HCl to form the salt in situ for freebase compounds) at a volume of 10 mL/kg. Five doses were tested, with N=5-8 animals/group. Doses were calculated on the basis of the freebase, except for DOI, which was calculated based on the HCl salt.
Procedure. Mice were administered one dose of the drug and immediately placed into a small open field for behavioral observation. High-speed video of animals' behavior was captured continuously for 20 min. Video recordings were imported into an image processing software, which detects multiple points of interest on each animal's body, including the left and right ear. HTR events were defined as periodic deviations of ear locations from temporally averaged ear locations. Predefined thresholds for magnitude and frequency of location deviations were used to filter […] events from random head movements. The method was validated by comparing detected events with manual (human) observations and found to have an accuracy >95%. The total number of HTR events counted during the 20-min recording were determined for each animal at each dose.
Statistical Analysis. Analysis was performed using GraphPad Prism 9. Dose-response curves were fit via non-linear regression using the Gaussian 2020 function in Prism in order to determine the ED50 and Emax for each compound.

[5] = target: human 5-HT2C receptor (Homo sapiens (Human), UniProt P28335); test: FLIPR Ca2+ flux functional assay at 5-HT2C (Eurofins DiscoverX); type: cell-based; settings: Ca2+ flux, human 5-HT2C, at max concentration
human 5-HT2C receptor, sequence (P28335 whole entry, looked up): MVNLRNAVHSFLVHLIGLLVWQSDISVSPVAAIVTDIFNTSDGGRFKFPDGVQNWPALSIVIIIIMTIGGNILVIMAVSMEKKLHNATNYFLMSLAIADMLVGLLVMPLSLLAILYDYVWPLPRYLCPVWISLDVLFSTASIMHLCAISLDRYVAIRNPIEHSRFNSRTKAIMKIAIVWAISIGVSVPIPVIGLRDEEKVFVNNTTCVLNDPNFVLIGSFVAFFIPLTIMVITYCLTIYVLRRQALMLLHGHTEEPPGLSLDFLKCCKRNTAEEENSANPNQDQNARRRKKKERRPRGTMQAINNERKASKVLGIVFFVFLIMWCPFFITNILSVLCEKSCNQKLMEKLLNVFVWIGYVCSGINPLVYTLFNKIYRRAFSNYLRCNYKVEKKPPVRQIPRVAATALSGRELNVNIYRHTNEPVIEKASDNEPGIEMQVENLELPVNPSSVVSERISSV
Method: Functional Assays at 5-HT2C Receptors. […] Probenecid was prepared fresh. Cells were loaded with dye prior to testing and incubated at 37° C. for 30-60 minutes. After dye loading, cells were removed from the incubator and 10 μL HBSS/20 mM Hepes was added. 3× vehicle was included in the assay buffer. Cells were incubated for 30 mins at room temperature in the dark to equilibrate plate temperature. Intermediate dilution of sample stocks was performed to generate 4× sample in assay buffer. Compound agonist activity was measured on a FLIPR Tetra (MDS). Calcium mobilization was monitored for 2 minutes and 10 μL 4× sample in HBSS/20 mM Hepes was added to the cells 5 seconds into the assay.

5-HT2B receptor, sequence (P41595 whole entry, looked up): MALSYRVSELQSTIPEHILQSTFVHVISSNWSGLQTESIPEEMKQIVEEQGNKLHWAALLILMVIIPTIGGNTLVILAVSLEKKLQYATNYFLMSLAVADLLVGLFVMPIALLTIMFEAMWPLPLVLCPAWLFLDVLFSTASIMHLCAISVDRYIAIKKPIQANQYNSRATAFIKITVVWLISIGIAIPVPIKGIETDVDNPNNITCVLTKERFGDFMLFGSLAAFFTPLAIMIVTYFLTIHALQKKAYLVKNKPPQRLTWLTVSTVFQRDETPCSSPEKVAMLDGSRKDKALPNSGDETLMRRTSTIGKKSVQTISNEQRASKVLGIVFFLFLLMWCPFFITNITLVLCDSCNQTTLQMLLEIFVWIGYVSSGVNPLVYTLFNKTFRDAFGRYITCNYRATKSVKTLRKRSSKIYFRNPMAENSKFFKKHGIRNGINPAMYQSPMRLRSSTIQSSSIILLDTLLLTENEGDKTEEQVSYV

Compound | EC50 [1] [nM] | 5-HT2B % Act @ Max Conc. [1] [%] | EC50 [2] [nM] | 5-HT2A % Act @ Max Conc. [2] [%] | EC50 [3] [nM] | 5-HT1A % Act @ Max Conc. [3] [%] | ED50 [4] [mg/kg] | Emax (HTR counts/20 min) [4] [HTR counts/20 min] | # HTR/20 min at Most Efficacious Dose [4] [HTR/20 min] | Most Efficacious Dose; mg/kg [4] | 5-HT2C % Act @ Max Conc. [5] [%]
CCSc1cc(OC)c(CC(C)N)nc1OC (stereo not shown) [Compound 23, 1-(5-(ethylthio)-3,6-dimethoxypyridin-2-yl)propan-2-amine] | 44.5 | 67.46 | 3.03 | 106.2 | > 100000 | 3.21 |  |  |  |  | 
CCSc1cc(OC)c(CC(N)CC)nc1OC (stereo not shown) [Compound 24, 1-(5-(ethylthio)-3,6-dimethoxypyridin-2-yl)butan-2-amine] | > 10000 | 14.99 | 74.6 | 77.03 | > 100000 | 2.99 |  |  |  |  | 
COc1cc(C2CC2)c(OC)nc1CCN [Compound 26, 2-(5-cyclopropyl-3,6-dimethoxypyridin-2-yl)ethan-1-amine] | > 10000 | 5.16 | 27 | 81.58 | > 100000 | 2.22 |  |  |  |  | 
CCC(N)Cc1nc(OC)c(C2CC2)cc1OC (stereo not shown) [Compound 28, 1-(5-cyclopropyl-3,6-dimethoxypyridin-2-yl)butan-2-amine] |  |  | 161 | 71.49 |  |  |  |  |  |  | 
CCCCCCc1cc(OC)c(CCN)nc1OC [Compound 29, 2-(5-hexyl-3,6-dimethoxypyridin-2-yl)ethan-1-amine] | > 10000 | 7.78 | 34.6 | 69.91 | > 100000 |  | 7.46 | 22.11 | 23 | (3.2) mg/kg | 
CCCc1cc(OC)c(CC(N)CC)nc1OC (stereo not shown) [Compound 37, 1-(3,6-dimethoxy-5-propylpyridin-2-yl)butan-2-amine] | > 10000 | 12.18 | 128 | 49.58 | > 100000 | 42.24 |  |  |  |  | 
CCC(N)Cc1cc(OC)c(C)cc1OC (stereo not shown) [Compound 39, reference compound] |  | 39.2 |  | 112.8 |  | 8.7 |  |  |  |  | 99.3
CCCc1cc(OC)c(CC(N)CC)cc1OC (stereo not shown) [Compound 40, reference compound] |  | −0.18 |  | 84.23 |  | 96.43 |  |  |  |  | 93.58
CCCCCc1cc(OC)c(CC(C)N)cc1OC (stereo not shown) [Compound 41, reference compound] |  | 20.0 |  | 100.2 |  | 15.0 |  |  |  |  | 90.1
CCCCCCc1cc(OC)c(CC(C)N)cc1OC (stereo not shown) [Compound 42, reference compound] |  | 39.8 |  | 119.7 |  | 30.4 |  |  |  |  | 99.8
CCCCCc1cc(OC)c(CCN)cc1OC [Compound 43, reference compound] |  | 62.2 |  | 105.2 |  | 18.9 |  |  |  |  | 85.6
CCCCCCc1cc(OC)c(CCN)cc1OC [Compound 44, reference compound] |  | 46.79 |  | 90.51 |  | 183.21 | 1.36 | 57.87 | 58.0 | (3.2) mg/kg | 82.62
COc1cc(CCN)cc(OC)c1OC [Mescaline, reference compound] |  | 45.4 |  | 102 |  | −5.03 |  |  |  |  | 91.1
